Read-outs that look alike come from different tables or passages of the source.
How the values were obtained:
[1] = biological target: Cys242 in human PIK3CA (157-299) (Homo sapiens (Human), UniProt P42336); assay: Covalent modification assay using MALDI-TOF MS; format: biochemical; conditions: 4 h reaction time point
In short: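 PIK3CA (157-299), 3.33 or 1 μM in 20 mM HEPES, 150 mM NaCl, 2 mM MgCl2, pH 7.3, was incubated with compound at room temperature in the dark for 15 min, 30 min, 2 h or 4 h. Linear MALDI-TOF read-out; % modification = adduct peak height over summed heights of all protein species.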

pAKT in BT474 cells = assay: Cell-based pAKT HTRF assay in BT474 cells; conditions: BT474 cells, 4 hr incubation, read-out: pAKT inhibition IC50 in BT474 cells
In short: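 9-pt curve, top 3 μM, 3-fold steps, 0.25% DMSO; 4 hr compound exposure. Lysis, then HTRF with d2/Eu Cryptate antibody pair, 4–24 h RT. Ex 320 nm, Em 615 nm.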

[2] = 3.33 μM protein target, 1:7.5 protein to compound ratio (compounds 1-852)
[3] = Homo sapiens, BT-474, Compounds 10-999
[4] = 1 μM protein target, 1:5 protein to compound ratio (compounds 853-1279)

Sequence of Cys242 in human PIK3CA (157-299) (P42336 157-299): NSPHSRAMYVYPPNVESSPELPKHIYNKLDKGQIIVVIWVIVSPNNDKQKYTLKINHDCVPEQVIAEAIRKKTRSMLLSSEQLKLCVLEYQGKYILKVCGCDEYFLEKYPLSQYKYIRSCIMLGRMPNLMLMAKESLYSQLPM

Structure (SMILES)	% of modification [1, 2]	IC50 (pAKT in BT474 cells; [3]) [nM]	IC50 (pAKT in BT474 cells; Compounds 10-999) [nM]	% of modification [1, 4]	IC50 (pAKT in BT474 cells; Compounds 1000-1279) [nM]
C=CC(=O)N1CCn2nc(-c3nc(-c4cnn(C)c4)c4ccsc4c3-c3ccc(F)cc3OC(C)C)cc2C1 [Compound 200, 1-[2-[7-(4-fluoro-2-isopropoxy-phenyl)-4-(1-methylpyrazol-4-yl)thieno[3,2-c]pyridin-6-yl]-6,7-dihydro-4H-pyrazolo[1,5-a]pyrazin-5-yl]prop-2-en-1-one]	A (percent of modification of PIK3CA protein ≥75%)	< 100			
C=CC(=O)N1CC(n2cc(-c3nc(-c4ccc5c(c4)CNC(=O)C5)c4ccsc4c3-c3ccc(F)cc3OC)cn2)C1 [Compound 79]	A (percent of modification of PIK3CA protein ≥75%)		< 100		
C=CC(=O)N1Cc2cc(-c3nc(-c4ccc5c(c4)NC(=O)C5)c4ccsc4c3-c3c(F)cc(F)cc3OCCOC)nn2C[C@H]1C [Compound 779]	A (percent of modification of PIK3CA protein ≥75%)		< 100		
C=CC(=O)N1CCn2nc(-c3nc(-c4cnn([C@@H](CO)CF)c4)c4ccsc4c3-c3ccc(F)cc3OCCOC)cc2C1 [Compound 280]	A (percent of modification of PIK3CA protein ≥75%)		< 100		
C=CC(=O)N1Cc2cc(-c3nc(-c4ccc5c(c4)CCN(C)C5)c4ccsc4c3-c3c(F)cc(F)cc3OCCO)nn2[C@@H](C)C1 [Compound 565]	A (percent of modification of PIK3CA protein ≥75%)		< 100		
C=CC(=O)N1CCc2nc(-c3nc(-c4cnn(C)c4)c4ccsc4c3-c3ccc(F)cc3OCC3CNC(=O)C3)sc2C1 (centres unmarked) [Compound 187]	A (percent of modification of PIK3CA protein ≥75%)		< 100		
C=CC(=O)N1CCn2nc(-c3nc(-c4ccc(=O)n(C5CN(C)C5)c4)c4ccsc4c3-c3c(F)cc(F)cc3OCCOC)cc2C1C (centres unmarked) [Compound 1031]				B (50%<percent of modification <75%)	100 to 1000
C=CC(=O)N1CCn2nc(-c3nc(-c4ccc(C(=O)NCC(F)F)cc4)c4ccsc4c3-c3c(F)cc(F)cc3OCCOC)cc2C1C (centres unmarked) [Compound 1183]				A (percent of modification of PIK3CA protein ≥75%)	< 100
C=CC(=O)N1CCn2nc(-c3nc(-c4ccc5c(c4)C(=O)NC5)c4ccsc4c3-c3c(F)cc(F)cc3OCC(C)(C)O)cc2[C@H]1C [Compound 1130]				A (percent of modification of PIK3CA protein ≥75%)	< 100
C=CC(=O)N1CCn2nc(-c3nc(-c4ccc5c(c4)CN(C)CC5)c4ccsc4c3-c3c(F)cc(F)cc3OCCO)cc2[C@H]1C [Compound 1136]				A (percent of modification of PIK3CA protein ≥75%)	< 100
C=CC(=O)N1CCn2nc(-c3nc(-c4ccc5cnncc5c4)c4ccsc4c3-c3c(F)cc(F)cc3OCCO)cc2C1C (centres unmarked) [Compound 909]			< 100	A (percent of modification of PIK3CA protein ≥75%)	
C=CC(=O)N1Cc2cc(-c3nc(-c4cnc5c(c4)CNC(=O)C5)c4ccsc4c3-c3c(F)cc(F)cc3OCCOC)nn2[C@@H](C)C1 [Compound 515]	A (percent of modification of PIK3CA protein ≥75%)		< 100		
C=CC(=O)N1CC(n2cc(-c3nc(-c4ccc(C(N)=O)cc4)c4ccsc4c3-c3ccc(F)cc3OC)cn2)C1 [Compound 172]	A (percent of modification of PIK3CA protein ≥75%)		< 100		
C=CC(=O)N1CCn2nc(-c3nc(-c4cnc5c(c4)CN(CCCF)CC5)c4ccsc4c3-c3c(F)cc(F)cc3OCCOC)cc2C1C (centres unmarked) [Compound 1158]				A (percent of modification of PIK3CA protein ≥75%)	< 100
C=C(F)C(=O)N1Cc2cc(-c3nc(-c4ccc5c(c4)CCN(C)C5)c4ccsc4c3-c3c(F)cc(F)cc3OC(C)C)nn2CC1C (single isomer, unassigned) [Compound 500]	D (percent of modification <25%)		> 3000		
C=CC(=O)N1CCn2nc(-c3nc(-c4ccc5c(c4)CCN(C)CC5)c4ccsc4c3-c3c(F)cc(F)cc3OCCOC)cc2C1C (centres unmarked) [Compound 996]			< 100	A (percent of modification of PIK3CA protein ≥75%)	
C=CC(=O)N1CCc2cc(-c3nc(-c4ccc5cn(C)nc5c4)c4ccsc4c3-c3c(F)cc(F)cc3OCCO)nn2CC1 [Compound 1210]				A (percent of modification of PIK3CA protein ≥75%)	< 100
C=CC(=O)N1Cc2cc(-c3nc(-c4ccc5nncn5c4)c4ccsc4c3-c3c(F)cc(F)cc3OCC(C)O)nn2C(C)C1 (centres unmarked) [Compound 643]	A (percent of modification of PIK3CA protein ≥75%)		< 100		
C=CC(=O)N1Cc2cc(-c3nc(-c4ccc5nncn5c4)c4ccsc4c3-c3c(F)cc(F)cc3OCCO)nn2CC1C (centres unmarked) [Compound 903]			< 100	A (percent of modification of PIK3CA protein ≥75%)	

Structure (SMILES)	% of modification [1, 2]	IC50 (pAKT in BT474 cells; [3]) [nM]	IC50 (pAKT in BT474 cells; Compounds 10-999) [nM]	% of modification [1, 4]	IC50 (pAKT in BT474 cells; Compounds 1000-1279) [nM]
C=CC(=O)N1Cc2cc(-c3nc(-c4ccc5c(c4)CNC(=O)C5)c4ccsc4c3-c3c(F)cc(F)cc3OCCO)nn2CC1C (centres unmarked) [Compound 927]			< 100	A (percent of modification of PIK3CA protein ≥75%)	
C=CC(=O)N1Cc2cc(-c3nc(-c4ccc5c(c4)CCN(C)C5)c4ccsc4c3-c3c(F)cc(F)cc3OCC)nn2C(C)C1 (centres unmarked) [Compound 485]	A (percent of modification of PIK3CA protein ≥75%)		< 100		
C=C(F)C(=O)N1CCn2nc(-c3nc(-c4ccc5c(c4)CCNC5=O)c4ccsc4c3-c3ccc(F)cc3OCC)cc2C1 [Compound 304]	B (50%<percent of modification <75%)		100 to 1000		
C=CC(=O)N1CCc2ncc(-c3nc(-c4cnn(CC(C)(C)O)c4)c4ccsc4c3-c3c(F)cc(F)cc3OC(C)C)cc2C1 [Compound 345]	A (percent of modification of PIK3CA protein ≥75%)		< 100		
C=CC(=O)N1CCn2nc(-c3nc(-c4ccnc(N)c4)c4ccsc4c3-c3ccc(F)cc3OC(F)F)nc2C1 [Compound 217]	A (percent of modification of PIK3CA protein ≥75%)		< 100		
C=CC(=O)N1CCn2nc(-c3nc(-c4cnc(N(C)C)nc4)c4ccsc4c3-c3c(F)cc(F)cc3OCCOC)cc2C1C (centres unmarked) [Compound 1037]				A (percent of modification of PIK3CA protein ≥75%)	< 100
C=CC(=O)N1CC(n2cc(-c3nc(-c4ccc5c(c4)CCNC5)c4ccsc4c3-c3ccc(F)cc3OC(F)F)cn2)C1 [Compound 136]	A (percent of modification of PIK3CA protein ≥75%)		100 to 1000		
C=C(F)C(=O)N1CCn2nc(-c3nc(-c4ccc5c(c4)CCN(C)C5)c4ccsc4c3-c3ccc(F)cc3OCC)cc2C1 [Compound 305]	B (50%<percent of modification <75%)		100 to 1000		
C=CC(=O)N1CCc2nc(-c3nc(-c4ccc5c(c4)NC(=O)C5)c4ccsc4c3-c3ccc(F)cc3OCCOC)sc2C1 [Compound 163]	A (percent of modification of PIK3CA protein ≥75%)		< 100		
C=CC(=O)N1[C@H](C)Cn2nc(-c3nc(-c4ccc5c(c4)CCN(C)C5)c4ccsc4c3-c3c(F)cc(F)cc3OCCOC)cc2[C@@H]1C [Compound 480, 1-((4S,6R)-2-(7-(2,4-difluoro-6-(2-methoxyethoxy)phenyl)-4-(2-methyl-1,2,3,4-tetrahydroisoquinolin-6-yl)thieno[3,2-c]pyridin-6-yl)-4,6-dimethyl-6,7-dihydropyrazolo[1,5-a]pyrazin-5(4H)-yl)prop-2-en-1-one]	A (percent of modification of PIK3CA protein ≥75%)	< 100			
C=CC(=O)N1CCc2nc(-c3nc(-c4ccc5c(c4)C(O)CC5)c4ccsc4c3-c3c(F)cc(F)cc3OCCOC)sc2C1 (centres unmarked) [Compound 416]	A (percent of modification of PIK3CA protein ≥75%)		< 100		
C=CC(=O)N1CCc2nc(-c3nc(-c4ccc5c(c4)CCNC5)c4ccsc4c3-c3ccc(F)cc3OCC3CCNC(=O)C3)sc2C1 (centres unmarked) [Compound 182]	A (percent of modification of PIK3CA protein ≥75%)		< 100		
C=CC(=O)N1CCc2nc(-c3nc(-c4ccc5c(c4)CCNC5)c4ccsc4c3-c3c(F)cc(F)cc3OCCO)sc2C1 [Compound 415]	A (percent of modification of PIK3CA protein ≥75%)		100 to 1000		
C=C(F)C(=O)N1Cc2cc(-c3nc(-c4ccc5c(cnn5C)c4)c4ccsc4c3-c3c(F)cc(F)cc3OCCOC)nn2CC1C (centres unmarked) [Compound 873]			100 to 1000	D (percent of modification <25%)	
C=CC(=O)N1CCn2nc(-c3nc(-c4cnn(C)c4)c4ccsc4c3-c3ccc(F)cc3OCC3CCNC(=O)C3)cc2C1 (centres unmarked) [Compound 212]	A (percent of modification of PIK3CA protein ≥75%)		< 100		
C=CC(=O)N1CC(n2cc(-c3nc(N4CCc5cn[nH]c5C4)c4ccsc4c3-c3ccc(F)cc3OCCOC)cn2)C1 [Compound 166]	A (percent of modification of PIK3CA protein ≥75%)		100 to 1000		
C=CC(=O)N1CC(n2cc(-c3nc(-c4ccc5c(c4)CNC(=O)C5)c4ccsc4c3-c3ccc[nH]c3=O)cn2)C1 [Compound 91]	D (percent of modification <25%)		> 3000		
C=CC(=O)N1CCn2nc(-c3nc(-c4ccc5c(cnn5C)c4)c4ccsc4c3-c3c(F)cc(F)cc3OCCO)cc2[C@H]1C [Compound 652]	C (25%≤percent of modification <50%)		< 100		

— US20250230138A1, “COMPOUNDS HAVING A T-STRUCTURE FORMED BY AT LEAST FOUR CYCLES FOR USE IN THE TREATMENT OF CANCER AND OTHER INDICATIONS” (TheRas, Inc., priority 2022, published 2025)
